The text below walks through data of US10364256B2 (GlaxoSmithKline Intellectual Property Development Limited, priority 2015, dated 2019).

Experiment [1] addresses T1, full length Keap1 protein / full length NRF2 protein (Homo sapiens, UniProt Q14145).
T1 construct: full length NRF2 protein and full length Keap1 protein (Keap1 exists a dimer) are used; His
Description: NRF2-Keap1 TR-FRET Assay. Particulars: 25 nM Keap1-FlagHis and 50 nM biotin-NRF2 added. The format is binding. A digest of the protocol:
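Full-length Keap1-FlagHis preincubated with compound 2.25 h at 37 °C, then biotin-NRF2 added for 1.25 h at 4 °C, in Tris pH 8.0 with MgCl2, NaCl, BSA, DTT, CHAPS. TR-FRET 665/615 nm ratio normalised to with- and without-protein 1% DMSO controls; pIC50 from four-parameter fit.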
(TR-FRET usually uses a lanthanide donor and a delayed reading to cut background.)

For experiment [2], the target named is T2, Keap1 Kelch domain (321-609) / TAMRA-labeled 16mer NRF2 peptide (ETGE motif) (Homo sapiens, UniProt Q14145).
T2 construct: the Kelch domain (321-609) of Keap1 is used
Description: NRF2-Keap1 FP Assay (Keap1 Kelch fluorescence polarization). The experiment is classed as binding. Particulars: 20 nM Keap1 (321-609), 8 nM Tamra labeled peptide. Put shortly:
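Compound dilutions (3-fold) were incubated 1 hr at room temperature with 20 nM Keap1 Kelch (321-609) and 8 nM TAMRA-labeled ETGE 16mer peptide. Buffer was 50 mM Tris pH 8.0, 100 mM NaCl, 5 mM MgCl2, 1 mM DTT, 2 mM CHAPS, 0.005% BSA. Fluorescence polarization (mP) was normalized to controls and fitted with a four-parameter equation to give pIC50.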
Background: In fluorescence polarisation assays a small probe gives low polarisation when free and higher when bound to something large.

T2 sequence (Q14145 321-609): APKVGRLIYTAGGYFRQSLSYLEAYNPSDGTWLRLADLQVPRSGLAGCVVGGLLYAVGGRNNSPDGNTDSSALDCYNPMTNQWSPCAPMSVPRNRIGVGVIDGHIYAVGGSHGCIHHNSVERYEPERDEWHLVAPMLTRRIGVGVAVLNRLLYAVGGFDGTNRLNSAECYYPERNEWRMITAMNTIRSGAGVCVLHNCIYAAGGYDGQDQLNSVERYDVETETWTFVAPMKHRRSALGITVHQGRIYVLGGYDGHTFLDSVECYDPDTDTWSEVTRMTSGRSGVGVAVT
T1 sequence (Q14145 whole entry): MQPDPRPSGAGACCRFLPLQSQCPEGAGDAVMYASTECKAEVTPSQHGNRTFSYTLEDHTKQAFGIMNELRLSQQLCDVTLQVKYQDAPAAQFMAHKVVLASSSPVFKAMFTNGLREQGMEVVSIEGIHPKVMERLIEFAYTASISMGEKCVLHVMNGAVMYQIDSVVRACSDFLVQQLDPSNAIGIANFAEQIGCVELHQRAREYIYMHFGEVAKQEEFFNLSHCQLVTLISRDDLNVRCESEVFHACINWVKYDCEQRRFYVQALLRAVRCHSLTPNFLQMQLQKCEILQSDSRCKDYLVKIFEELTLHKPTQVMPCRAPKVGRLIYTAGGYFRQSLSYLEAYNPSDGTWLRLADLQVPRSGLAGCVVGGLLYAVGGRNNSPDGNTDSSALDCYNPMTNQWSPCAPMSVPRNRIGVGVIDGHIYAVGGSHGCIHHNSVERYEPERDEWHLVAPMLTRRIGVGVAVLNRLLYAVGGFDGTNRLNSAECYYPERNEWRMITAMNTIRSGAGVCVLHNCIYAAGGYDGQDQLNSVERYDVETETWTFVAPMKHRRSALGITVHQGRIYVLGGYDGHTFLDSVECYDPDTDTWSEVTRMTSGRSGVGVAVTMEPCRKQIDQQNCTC

For the compound `Cn1cc([C@@H]2C[C@H]2c2c(C(=O)O)cnn2-c2cccc(-c3cccc(OC(C4CCCCC4)C(F)(F)F)c3)c2)nn1` (mixture of isomers) [Example 157, 1-(3′-(1-Cyclohexyl-2,2,2-trifluoroethoxy)-[1,1′-biphenyl]-3-yl)-5-((1,2-trans)-2-(1-methyl-1H-1,2,3-triazol-4-yl)cyclopropyl)-1H-pyrazole-4-carboxylic Acid], the IC50 in experiment [1] and in experiment [2] was 0.1 to 1 µM throughout.

For `CO[C@H]1CC[C@H](COc2cccc(-c3cccc(-n4ncc(C(=O)O)c4[C@H]4C[C@@H]4c4cn(C)nn4)c3)c2)CC1` (racemic) [Example 176, 1-(3′-(((1R,4S)-4-Methoxycyclohexyl)methoxy)-[1,1′-biphenyl]-3-yl)-5-((1,2-trans)-2-(1-methyl-1H-1,2,3-triazol-4-yl)cyclopropyl)-1H-pyrazole-4-carboxylic acid], the IC50 – broadly, the concentration at which inhibition is half-maximal – was 0.1 to 1 µM in experiment [1] and 0.01 to 0.1 µM in experiment [2].

As for `COC1CCCCC1COc1cccc(-c2cccc(-n3ncc(C(=O)O)c3[C@H]3C[C@@H]3c3cn(C)nn3)c2)c1` (mixture of isomers) [Example 177, 1-(3′-((2-Methoxycyclohexyl)methoxy)-[1,1′-biphenyl]-3-yl)-5-((1,2-trans)-2-(1-methyl-1H-1,2,3-triazol-4-yl)cyclopropyl)-1H-pyrazole-4-carboxylic acid], the IC50 in experiment [1] and in experiment [2] was 0.1 to 1 µM throughout.

As to `COC1CCCC(COc2cccc(-c3cccc(-n4ncc(C(=O)O)c4[C@H]4C[C@@H]4c4cn(C)nn4)c3)c2)C1` (mixture of isomers) [Example 178, 1-(3′-((3-Methoxycyclohexyl)methoxy)-[1,1′-biphenyl]-3-yl)-5-((1,2-trans)-2-(1-methyl-1H-1,2,3-triazol-4-yl)cyclopropyl)-1H-pyrazole-4-carboxylic acid], the IC50 in experiment [1] lay in the range of 0.1 to 1 µM; in experiment [2], 0.01 to 0.1 µM.

As to `Cn1cc([C@H]2C[C@@H]2c2c(C(=O)O)cnn2-c2cccc(-c3cccc(OC[C@H]4CC[C@H](Cl)CC4)c3)c2)nn1` (racemic) [Example 185, 1-(3′-((4-Chlorocyclohexyl)methoxy)-[1,1′-biphenyl]-3-yl)-5-((1,2-trans)-2-(1-methyl-1H-1,2,3-triazol-4-yl)cyclopropyl)-1H-pyrazole-4-carboxylic Acid], the IC50 in experiment [1] and in experiment [2] was 0.1 to 1 µM throughout.

As for `Cn1cc([C@H]2C[C@@H]2c2c(C(=O)O)cnn2-c2cccc(-c3cccc(OCC4CCCC(Cl)C4)c3)c2)nn1` (mixture of isomers) [Example 187, 1-(3′-((3-chlorocyclohexyl)methoxy)-[1,1′-biphenyl]-3-yl)-5-((1,2-trans)-2-(1-methyl-1H-1,2,3-triazol-4-yl)cyclopropyl)-1H-pyrazole-4-carboxylic acid], the IC50 in experiment [1] and in experiment [2] was 0.1 to 1 µM throughout.

With `CCn1cc([C@H]2C[C@@H]2c2c(C(=O)O)cnn2-c2cccc(-c3cccc(OC(C)C4CCCCC4)c3)c2)nn1` (mixture of isomers) [Example 192, 1-(3′-(1-cyclohexylethoxy)-[1,1′-biphenyl]-3-yl)-5-((1,2-trans)-2-(1-ethyl-1H-1,2,3-triazol-4-yl)cyclopropyl)-1H-pyrazole-4-carboxylic acid], the values for the IC50 in experiment [1] and in experiment [2] were 0.1 to 1 µM and 0.01 to 0.1 µM, respectively.

Regarding `CCC[C@@H]1CCCCN1C(=O)c1cccc(-c2cccc(-n3ncc(C(=O)O)c3[C@H]3C[C@@H]3c3cn(CC)nn3)c2)c1` (racemic) [Example 201, 5-((1,2-trans)-2-(1-Ethyl-1H-1,2,3-triazol-4-yl)cyclopropyl)-1-(3′-((R)-2-propylpiperidine-1-carbonyl)-[1,1′-biphenyl]-3-yl)-1H-pyrazole-4-carboxylic acid], the IC50 in experiment [1] and in experiment [2] was 0.01 to 0.1 µM in each case.

For the compound `CC(Oc1cccc(-c2cccc(-n3ncc(C(=O)O)c3[C@H]3C[C@@H]3c3cn(C)nn3)c2)c1)C1CCCCCC1` (mixture of isomers) [Example 230, 1-(3′-(1-Cycloheptylethoxy)-[1,1′-biphenyl]-3-yl)-5-((1,2-trans)-2-(1-methyl-1H-1,2,3-triazol-4-yl)cyclopropyl)-1H-pyrazole-4-carboxylic acid], the IC50 in experiment [1] and in experiment [2] was 0.01 to 0.1 µM throughout.
